“Also recorded” adds a separate entry of the source. Where a SMILES comes first, the peptide text is derived from it. [ ]: non-standard residue; d: D form. The star is where a group is joined. Nle = CCCC[C@H](N)C(=O)O; Cbz = O=C(OCc1ccccc1)*; CH2F = FC*

What all share (assay type): cell-based, mouse
One assay relates to cortical neurons. Kind of assay: Saponin axotomy of cortical neurons in three-chamber device, axonal fragmentation by tubulin labeling (Example 20). The settings on record: for occurrence of axon fragmentation after axotomy: 50 μM applied to the distal segments of axons at the time of axotomy, FIG. 29; for protective effect against axon fragmentation after axotomy: applied 24 h before axotomy (not shown). The protocol:
The cortices of 14-day mouse embryos are dissected and dissociated as has already been described elsewhere, for example Eur J Neurosci 2001 June; 13(11): 2037-46 William S et al. The neurons are seeded into the somatic chamber (also called compartment) of the circuits at a density of 10^5 cells/cm^2. In this manner, about 4×10^4 neurons are seeded into the somatic chamber. The culture medium consists of DMEM containing 4.5 g/l D-glucose and pyruvate (Invitrogen, Carlsbad, USA), supplemented with 10% of FCS (fetal calf serum; PAA Laboratories, Pasching, Germany) and with 2% of B27 (Invitrogen). The medium is replaced every three days until the beginning of the experiment, and the cultures are conserved in an incubator at 37° C. and 5% CO2. The experiments are carried out after 7 to 8 days of culture in vitro. The calpain inhibitor N-acetyl-Leu-Leu-Nle-CHO (ALLN; Calbiochem), the general caspase inhibitor Z—V-A-D-fluoromethyl ketone (z-VAD; R1D Systems, Minneapolis, USA) and β-nicotinamide adenine dinucleotide hydrate (βNAD; Sigma) are introduced into the culture medium at the beginning of the experiments.
In order to carry out the axotomy, a flow of 15 μl of medium containing 0.1% of saponin is produced for 2 minutes in the central chamber. In order to avoid the flow of detergent entering the microchannels, an overpressure is maintained in the somatic and axonal chambers throughout the experiment. After 2 minutes of flow, the medium containing the saponin is removed and the central macrochannel is rinsed with culture medium for 5 min. Fresh medium is then added to this channel.
After a given culture time (optionally according to the moment at which the axotomy experiment is carried out), the neuron cultures are fixed with a 4% paraformaldehyde solution (Sigma) so as to undergo analysis by immunocytochemistry. The circuits are labeled by immunofluorescence with an anti-MAP2 antibody (rabbit IgG, 1:3000; Chemicon, Temecula, USA), and an anti-β-III-tubulin monoclonal antibody (mouse IgG, 1:3000; Sigma) for labeling the cytoskeletal proteins. The circuits are fluorescently labeled with Hoechst 33342 (1:25000; Sigma) for labeling the nucleus. In a separate experiment, the circuits were also labeled by immunofluorescence with an anti-glial fibrillary acidic protein antibody (GFAP, rabbit IgG, 1:5000; DakoCytomation, Glostrup, Denmark) which makes it possible to label the astrocytes. A part of the cultures was subjected to fixing and extraction. This procedure makes it possible to eliminate the tubulin free in the cytoplasm while at the same time fixing the microtubules. These cultures were labeled by immunofluorescence with an anti-a-tubulin monoclonal antibody conjugated to the fluorophore FITC (Sigma) and labeled with phalloidin linked to an Alexa Fluor 555 (Invitrogen) so as to reveal the microtubules and the actin cytoskeleton, respectively. The images were acquired using an inverted epifluorescence microscope (Zeiss, Goettingen, Germany) equipped with a CoolSnap HQ2 camera (Roper Scientific, Ottobrunn, Germany) and using the micro-manager acquisition software (http://www.micro-manager.org).
The axonal degeneration is estimated by comparing the type of tubulin labeling of fragmented axons or of intact axons. Good survival, in culture, of the cortical neurons is dependent on the initial seeding density, which must be high. Consequently, a large number of cortical axons invade the central and distal chambers. Moreover, since the cortical axons have many branches, the immunohistochemical analysis of the axonal tubulin in the axonal chambers is therefore complex, and the axons are difficult to individualize. The proportion of axon entering the central chamber and emerging in the distal axonal chamber was estimated by calculating a ratio of intensity of overall fluorescence of the b3-tubulin labeling of identical surface areas captured in the central chamber and the distal axonal chamber. […]

The subject of a further assay is striatal erk kinase. Kind of assay: Phosphorylation of striatal erk kinase in corticostriatal network, device D3 (Example 13). The settings on record: after seven days in vitro; cortical depolarization. The protocol:
FIG. 18 represents microfluidic chambers separated by asymmetrical microchannels.
This experiment was carried out with the device D3.
The cortical neurons are seeded on the left and the striatal neurons on the right. After seven days in vitro, the cortical axons establish connections with the striatal neurons (β3-tubulin in green, striatal neurons in red (MAP2)).

The subject of the next assay is corticostriatal network. Kind of assay: Synaptic degeneration on a corticostriatal network after cortical axotomy, Vglut-1 presynaptic structures (Example 16). The settings on record: NAD added to striatal compartment at the time of axotomy / pretreated. The protocol: Photographs a and b of FIG. 21 represent cortical, central and striatal chambers of reconstructed corticostriatal networks in three-chamber microfluidic devices.
The neurons were labeled on MAP2 (blue), β3-tubulin (green) and Vglut-1 (red).
Photograph c is representative of cortical-presynaptic structures (Vglut1, red) attached to striatable dendrites (MAP2, blue) after 1, 2, 4 and 6 hours of axotomy or controlled culture or culture pretreated with NAD.
Photograph d illustrates the quantification of a presynaptic cortical structure attached to MAP2-positive striatal dendrites after cortical axotomy.
This experiment was carried out with device D4. The experiment, carried out on a corticostriatal network, makes it possible to illustrate that it is possible to objectivize a phenomenon of synaptic degeneration after application of a stress at the cortical level (in this case axotomy) (disappearance of Vglu-1 labeling which is specific for cortical presynaptic structures). […] FIGS. 20 and 21 illustrate the consequences of the axotomy of cortical axons of a corticostriatal network. This axotomy causes the propagation of a signal resulting in rapid degeneration of the presynaptic compartment (FIG. 21) of the corticostriatal junction, and then in degeneration of the cortical axons (FIG. 20).

A further assay concerns Cerebellar neurons. Kind of assay: Axonal degeneration of cerebellar neurons after somatic staurosporin, microfluidic device D1 (Example 14). The settings on record: for axon-protecting effect against staurosporin-induced axonal degeneration: compound applied concomitantly to the axons only, staurosporin on the somas. The protocol:
Cerebellar neurons are seeded into microfluidic devices according to the invention and treated with an apoptosis inducer (1 μM staurosporin, STS) at the somatic level. This induces axonal degeneration in the distal chamber (Phi). Apoptosis-blocking compounds (zVAD) or proteases of calpain type (Cal-Inh) are applied specifically to the axons (and not to the somas). The “axon-protecting” effect is quantified on the graph on the right in FIG. 19. Devices D1 are used. Neurons (in this case from the cerebellum) are seeded and their axons pass through the asymmetrical microchannels so as to reach the second chamber (or the 3rd if the device has three compartments). A stress (in this case staurosporin, which is a pro-apoptotic agent) is applied to the soma of the neurons. […] The effect of “axon-protecting” molecules can thus be evaluated. FIG. 19 illustrates the start of axonal degeneration induced by the application of a pro-apoptotic stress applied to the somato-dendritic compartment of neurons. This causes the propagation of a destructive signal in the axon, which then degenerates early, before the cell soma.

The next assay has as its system cortical axons. Kind of assay: Axotomy of the central portion of cortical axons in three-chamber device D4, Wallerian degeneration model (Example 15). The protocol: The microfluidic device represented in image 4a of FIG. 20 is similar to that described previously with reference to FIGS. 1C to 1H and comprises three chambers. It is device D4. This makes it possible to apply molecules of interest on the central portion of the axons, for example a detergent (Triton X100, 0.1%), applied for 1 min. […] In this example, although the cortical axons sectioned in their central portion are still intact after one hour of section, they degenerate after 4 h. This constitutes a model of Wallerian degeneration (degeneration of the distal portion of axons). The potential of compounds which protect against this effect can be evaluated by applying them specifically in one or more of the chambers of the device. […] This experiment was carried out with device D4. The experiment, carried out on a corticostriatal network, makes it possible to illustrate that it is possible to objectivize a phenomenon of synaptic degeneration after application of a stress at the cortical level (in this case axotomy) (disappearance of Vglu-1 labeling which is specific for cortical presynaptic structures). […] FIGS. 20 and 21 illustrate the consequences of the axotomy of cortical axons of a corticostriatal network. […]

For `CCCC[C@@H](C=O)NC(=O)[C@H](CC(C)C)NC(=O)[C@H](CC(C)C)NC(C)=O` [ALLN, N-acetyl-Leu-Leu-Nle-CHO] (Ac-Leu-Leu-[Nle]-aldehyde), in the assay with cortical neurons, the “occurrence of axon fragmentation after axotomy” value is “does not delay the occurrence of axon fragmentation” and the “protective effect against axon fragmentation after axotomy” value is listed as “absence of protective effect”.
On to `[Cl-].[K+]` [KCl], for which the “phosphorylation of the striatal erk kinase” value in the assay with striatal erk kinase is listed as “triggers phosphorylation”.
In the case of `C[C@]12N[C@H](Cc3ccccc31)c1ccccc12` [MK801], in the assay on striatal erk kinase, the “phosphorylation of the striatal erk kinase” value was “inhibition”.
Consider `NC(=O)c1ccc[n+]([C@@H]2O[C@H](COP(=O)([O-])OP(=O)(O)OC[C@H]3O[C@@H](n4cnc5c(N)ncnc54)[C@H](O)[C@@H]3O)[C@@H](O)[C@H]2O)c1` [NAD, β-nicotinamide adenine dinucleotide hydrate], for which the “degeneration of cut axons” value in the assay with cortical neurons (5 mM pretreatment 24 h before axotomy, 8 h after axotomy (all control axons fragmented)) is reported as “do not exhibit any sign of degeneration”. Further, in the assay on cortical neurons (5 mM pretreatment 24 h before axotomy, 24 hours after axotomy), the “persistence of axon protection” value was “protection disappears”. The “signs of axonal degeneration after axotomy” value in the assay with cortical neurons (neurons pretreated 24 h before axotomy with 5 mM) is reported as “delayed”. Further, the “presynaptic degeneration of the corticostriatal junction (Vglut-1)” value in the assay on corticostriatal network (FIG. 21, hydrate) was “delays presynaptic degeneration”; with corticostriatal network (FIG. 21, listed as NAD+, hydrate) it was “Delays Deconnection”. In addition, in the assay on Cerebellar neurons, the “axon-protecting effect against staurosporin-induced axonal degeneration” value is reported as “delays this axonal degeneration”. Further, the “degeneration of transected cortical axons (axon-protecting effect)” value in the assay with cortical axons (after axotomy, NAD added to the striatal compartment at the time of axotomy, FIG. 20, hydrate) is recorded as “axon-protecting effect; also recorded: delays”.
On to `CN[C@@H]1C[C@H]2O[C@@](C)([C@@H]1OC)n1c3ccccc3c3c4c(c5c6ccccc6n2c5c31)C(=O)NC4` [staurosporin], for which, in the assay with Cerebellar neurons (1 μM staurosporin at the somatic level, axons in distal chamber, in 24 h), the “axon degeneration induced by stress applied to the soma” value is recorded as “induces axon degeneration”.
With `COC(=O)C[C@H](NC(=O)[C@H](C)NC(=O)[C@@H](NC(=O)OCc1ccccc1)C(C)C)C(=O)CF` [zVAD] (Cbz-Val-Ala-Asp(OMe)-CH2F), in the assay on cortical neurons, the “occurrence of axon fragmentation after axotomy” value is “does not delay the occurrence of axon fragmentation” and the “protective effect against axon fragmentation after axotomy” value is “absence of protective effect”. Besides, in the assay with Cerebellar neurons, the “axon-protecting effect against staurosporin-induced axonal degeneration” value was “prevents this degeneration; also recorded: delays this axonal degeneration”.
For Triton X100, in the assay with cortical axons (Triton X100 0.1% applied for 1 min on central portion of the axons), the “section of axons by detergent” value is listed as “immediate section of the central portion of the axons”.
Take saponin: in the assay with cortical neurons (0.1% saponin, flow for 2 minutes in the central compartment), the “destruction of axon segments by detergent flow” value was “immediate destruction of the axon segments contained in the central compartment”.

Source of the values: US10767151B2, “Device for cell culture” (priority 2008, dated 2020).
